What was measured:
[1] = test system: GL1208 gall bladder cancer PDX xenograft model; experiment: TH-302 efficacy in GL1208 gall bladder cancer PDX xenograft model; assay type: in vivo, mice
Source text: (§1) A series of tumor xenograft experiments was initiated. In these gall bladder and NSCLC tumor experiments, patient-derived tumor xenograft (PDX) models were selected since these models more accurately mimic the histology and genetics of actual human tumors as compared with the cell line derived models. More specifically, the original tumor sources for these human tumor xenograft models were patient-derived (PDX) gall bladder and lung carcinomas that have been maintained subcutaneously in nude mice for >3 passages. When grown to 500-700 mm^3, the tumors were harvested for inoculation by selecting and slicing (into 3×3×3 mm^3 fragments) well grown portions of tumors. These tumor fragments were implanted subcutaneously in the right flank of athymic nu/nu mice (female, 6-8 weeks old (18-20 g)) for the efficacy experiments. All of the procedures for tumor harvesting, inoculation, animal dosing, and tumor and body weight measurement were conducted in a sterile hoods.
(§2) For the efficacy studies, when the average tumor size reached 100-200 mm^3, mice were randomly grouped into vehicle and TH-302 treatment groups. Each group contained 8-10 mice. […] Tumor volumes were measured twice weekly.
(§3) %ΔT/ΔC was calculated with the formula below: %ΔT/ΔC=((TVf−TVi)/(TVfCtrl−TViCtrl))×100% where TV=tumor volume, f=final, I=initial, and Ctrl=control group. […]

[2] = test system: LU1380 NSCLC PDX xenograft model; experiment: TH-302 efficacy in LU1380 NSCLC PDX xenograft model; assay type: in vivo, mice
Source text: as §1, §2, §3

[3] = test system: LU0387 NSCLC PDX xenograft model; experiment: TH-302 efficacy in LU0387 NSCLC PDX xenograft model; assay type: in vivo, mice
Source text: as §1, §2, §3

[4] = test system: panel of 11 cancer cell-line derived models; details: previous tumor xenograft studies; cited from earlier work
[5] = test system: LU2505 NSCLC PDX xenograft model; experiment: TH-302 efficacy in LU2505 NSCLC PDX xenograft model; assay type: in vivo, mice
Source text: as §1, §2, §3

[6] = test system: LU0357 NSCLC PDX xenograft model; experiment: TH-302 efficacy in LU0357 NSCLC PDX xenograft model; assay type: in vivo, mice
Source text: as §1, §2, §3

[7] = test system: LU1235 NSCLC PDX xenograft model; experiment: TH-302 efficacy in LU1235 NSCLC PDX xenograft model; assay type: in vivo, mice
Source text: as §1, §2, §3

[8] = test system: GL0608 gall bladder cancer PDX xenograft model; experiment: TH-302 efficacy in GL0608 gall bladder cancer PDX xenograft model; assay type: in vivo, mice
Source text: as §1
(§4) For the efficacy studies, when the average tumor size reached 100-200 mm^3, mice were randomly grouped into vehicle and TH-302 treatment groups. Each group contained 8-10 mice. Since the tumor volume could affect the effectiveness of any given treatment, a randomized block design was used in the group assignment based upon their tumor volumes. […] After randomization, mice were treated with either vehicle or TH-302 i.p. 60 mg/kg twice per week (Q2W) for approximately 5-8 weeks based on tumor grow rate and response. The precise dosing periods are described in the legends of FIGS. 1 and 2 above. Tumor volumes were measured twice weekly.
(§5) %ΔT/ΔC was calculated with the formula below: %ΔT/ΔC=((TVf−TVi)/(TVfCtrl−TViCtrl))×100% where TV=tumor volume, f=final, I=initial, and Ctrl=control group.
(§6) If tumor regression was observed: %ΔT/ΔC=(TVf−TVi)/TVi)×100%=% Regression=(1−(TVf/TVi))×100% where TV=tumor volume, f=final, I=initial, and Ctrl=control group. […]

[9] = Body weights of mice treated with TH-302 in PDX xenograft studies; assay type: in vivo; details: 60 mg/kg i.p. Q2W, data not shown
Source text: as §1
For the efficacy studies, when the average tumor size reached 100-200 mm^3, mice were randomly grouped into vehicle and TH-302 treatment groups. Each group contained 8-10 mice. Since the tumor volume could affect the effectiveness of any given treatment, a randomized block design was used in the group assignment based upon their tumor volumes. […] Tumor volumes were measured twice weekly.

[10] = test system: LU1304 NSCLC PDX xenograft model; experiment: TH-302 efficacy in LU1304 NSCLC PDX xenograft model; assay type: in vivo, mice
Source text: as §1, §2, §3

[11] = test system: LU1245 NSCLC PDX xenograft model; experiment: TH-302 efficacy in LU1245 NSCLC PDX xenograft model; assay type: in vivo, mice
Source text: as §1, §4, §5, §6

Cn1c(COP(=O)(NCCBr)NCCBr)cnc1[N+](=O)[O-] [TH-302, (2-bromoethyl)({[(2-bromoethyl)amino][(2-nitro-3-methylimidazol-4-yl)methoxy]phosphoryl})amine]
%ΔT/ΔC (TH-302) ([1]; GL1208, gall bladder, adenosquamous, TH-302 60 mg/kg i.p. twice per week (Q2W), 49 days): 62%
antitumor activity (tumor growth measurements), in words ([1]; GL1208, 60 mg/kg i.p. Q2W, after 49 days treatment): minor tumor growth inhibition
%ΔT/ΔC (TH-302) ([2]; LU1380, NSCLC EGFR wt, TH-302 60 mg/kg i.p. twice per week (Q2W), 42 days): 86%
antitumor activity (tumor growth measurements), in words ([2]; LU1380, 60 mg/kg i.p. Q2W, after 42 days treatment): minor tumor growth inhibition
%ΔT/ΔC (TH-302) ([3]; LU0387, NSCLC EGFR mt, TH-302 60 mg/kg i.p. twice per week (Q2W), approximately 5-8 weeks): 84%
antitumor activity, in words ([3]; LU0387, similar to LU1380): minor level of efficacy
monotherapy efficacy (tumor growth delays) [4]: modest
%ΔT/ΔC (TH-302) ([5]; LU2505, NSCLC EGFR wt, TH-302 60 mg/kg i.p. twice per week (Q2W), approximately 5-8 weeks): 34%
antitumor activity, in words ([5]; LU2505, similar to LU1380): minor level of efficacy
%ΔT/ΔC (TH-302) ([6]; LU0357, NSCLC EGFR mt, TH-302 60 mg/kg i.p. twice per week (Q2W), approximately 5-8 weeks): 93%
antitumor activity, in words ([6]; LU0357, similar to LU1380): minor level of efficacy
%ΔT/ΔC (TH-302) ([7]; LU1235, NSCLC EGFR mt, TH-302 60 mg/kg i.p. twice per week (Q2W), approximately 5-8 weeks): 74%
antitumor activity, in words ([7]; LU1235, similar to LU1380): minor level of efficacy
%ΔT/ΔC (TH-302) ([8]; GL0608, gall bladder, adenocarcinoma, TH-302 60 mg/kg i.p. twice per week (Q2W), 59 days): −100%
mice with a complete response (lack of tumor re-growth following regression) ([8]; GL0608, 60 mg/kg i.p. Q2W for 59 days, at day 99, final tumor measurement): 10/10
antitumor activity (tumor growth measurements), in words ([8]; GL0608, 60 mg/kg i.p. Q2W, treatment period 59 days): highly sensitive
changes in the body weights of the mice treated with TH-302 ([9]; NSCLC PDX studies (LU1245, LU1380)): No significant changes
changes in the body weights of the mice treated with TH-302 ([9]; gall bladder PDX studies (GL0608, GL1208)): No significant changes
%ΔT/ΔC (TH-302) ([10]; LU1304, NSCLC EGFR wt, TH-302 60 mg/kg i.p. twice per week (Q2W), approximately 5-8 weeks): 93%
antitumor activity, in words ([10]; LU1304, similar to LU1380): minor level of efficacy
%ΔT/ΔC (TH-302) ([11]; LU1245, NSCLC EGFR wt, TH-302 60 mg/kg i.p. twice per week (Q2W), 49 days): −42%
antitumor activity (tumor growth measurements), in words ([11]; LU1245, 60 mg/kg i.p. Q2W, 49 day dosing period): highly sensitive
mice with a complete response (lack of tumor re-growth following regression) ([11]; LU1245, 60 mg/kg i.p. Q2W, 49 day dosing, at day 73 (14 days post treatment termination)): 5/10

Source: patent US10071109B2, “Predictive biomarker for hypoxia-activated prodrug therapy” (Molecular Templates, Inc., priority 2013, dated 2018)
